Assay results from patent US20070117743A1, “New antitumoral compounds” (priority 2003, published 2007).
Where a SMILES comes first, the peptide text is derived from it. Bridges are numbered along the chain shown (N, C = ends). [ ]: non-standard residue; d: D form. The star is where a group is joined. d(aIle) = CC[C@H](C)[C@@H](N)C(=O)O; d(aThr) = C[C@@H](O)[C@@H](N)C(=O)O; hCha = N[C@@H](CCC1CCCCC1)C(=O)O; Hexanoyl(5-Me) = CC(C)CCCC(=O)*; dCha = N[C@H](CC1CCCCC1)C(=O)O; Orn = NCCC[C@H](N)C(=O)O; Dhb = C/C=C(\N)C(=O)O

Columns and labels:
Format in all cases: cell-based, human
LNCaP = test: SRB colorimetric assay of cell growth and viability, LNCaP; conditions: 48 hours exposure; for GI50: read-out: GI50 LN-caP; for CC50: read-out: LC50 LN-caP
SK-BR-3 = test: SRB colorimetric assay of cell growth and viability, SK-BR-3; conditions: 48 hours exposure
LoVo-Dox = test: SRB colorimetric assay of cell growth and viability, LoVo-Dox; conditions: 48 hours exposure; for CC50: read-out: LC50 LOVO-DOX
Method in brief: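 First, 5×10^3 cells per well attach for 18 hours in RPMI 1640 with 10% FBS at 37° C and 5% CO2. Next, samples spanning 10 to 10^−8 μg/mL are added for 48 hours. Finally, cells are fixed with TCA, stained with SRB for 10 minutes and read at 490 nm.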

IGROV-ET = test: SRB colorimetric assay of cell growth and viability, IGROV-ET; conditions: 48 hours exposure; for CC50: read-out: LC50 IGROV-ET
LoVo = test: SRB colorimetric assay of cell growth and viability, LoVo; conditions: 48 hours exposure; for CC50: read-out: LC50 LOVO
PANC-1 = test: SRB colorimetric assay of cell growth and viability, PANC-1; conditions: 48 hours exposure; for CC50: read-out: LC50 PANC-1
A-549 = test: SRB colorimetric assay of cell growth and viability, A-549; conditions: 48 hours exposure; for GI50: read-out: GI50 A-549; for CC50: read-out: LC50 A-549
HeLa = test: SRB colorimetric assay of cell growth and viability, HeLa; conditions: 48 hours exposure; for CC50: read-out: LC50 HELA
IGROV-1 = test: SRB colorimetric assay of cell growth and viability, IGROV-1; conditions: 48 hours exposure
HT-29 = test: SRB colorimetric assay of cell growth and viability, HT-29; conditions: 48 hours exposure; for GI50: read-out: GI50 HT-29; for CC50: read-out: LC50 HT-29
K-562 = test: SRB colorimetric assay of cell growth and viability, K-562; conditions: 48 hours exposure; for CC50: read-out: LC50 K-562
DU-145 = test: SRB colorimetric assay of cell growth and viability, DU-145; conditions: 48 hours exposure
SK-MEL-28 = test: SRB colorimetric assay of cell growth and viability, SK-MEL-28; conditions: 48 hours exposure; for CC50: read-out: LC50 MEL-28
HeLa-APL = test: SRB colorimetric assay of cell growth and viability, HeLa-APL; conditions: 48 hours exposure; for CC50: read-out: LC50 HELA-APL

## C/C=C1\NC(=O)[C@H](Cc2ccccc2)NC(=O)[C@@H](C(C)C)NC(=O)[C@@H](C(C)CC)NC(=O)[C@H](NC(=O)[C@H](NC(=O)[C@H](CCCN)NC(=O)[C@H]2CCCN2C(=O)[C@H](NC(=O)[C@@H](NC(=O)[C@@H](NC(=O)[C@H](NC(=O)CCC(C)CC)C(C)C)C(C)O)C(C)C)C(C)C)C(C)CC)C(C)OC(=O)[C@H](C(C)C)NC1=O (stereo partly drawn) [Compound 1, (4S)-MeHex-D-Val-ThrVal-D-Val-D-Pro-Orn-D-allo-Ile-cyclo[D-allo-Thr-D-allo-Ile-D-Val-Phe-(Z)Dhb-Val]]
LNCaP
  TGI LN-caP: 2.14E−06 Molar
  GI50: 900 nM
  CC50: 5080 nM
SK-BR-3
  GI50: 43.4 nM
  LC50: 469 nM
  TGI SK-BR-3: 9.27E−08 Molar
LoVo-Dox
  GI50: 63.6 nM
  TGI LOVO-DOX: 2.29E−07 Molar
  CC50: 1430 nM
IGROV-ET
  GI50: 135 nM
  TGI IGROV-ET: 2.89E−07 Molar
  CC50: 619 nM
LoVo
  GI50: 116 nM
  TGI LOVO: 2.42E−07 Molar
  CC50: 502 nM
PANC-1
  GI50: 1820 nM
  TGI PANC-1: 3.66E−06 Molar
  CC50: ≥ 6770 nM
A-549
  TGI A-549: 2.05E−06 Molar
  GI50: 907 nM
  CC50: 4630 nM
HeLa
  GI50: 254 nM
  TGI HELA: 7.38E−07 Molar
  CC50: 2560 nM
IGROV-1
  GI50: 158 nM
  LC50 (concentration causing 50% net cell killing): 641 nM
  TGI IGROV: 3.19E−07 Molar
HT-29
  TGI HT-29: 2.18E−07 Molar
  GI50: 95.4 nM
  CC50: 498 nM
K-562
  GI50: 1620 nM
  TGI K-562: 2.96E−06 Molar
  CC50: 5400 nM
DU-145
  GI50: 327 nM
  LC50 (concentration causing 50% net cell kill): 2540 nM
  TGI DU-145: 8.80E−07 Molar
SK-MEL-28
  GI50: 315 nM
  TGI MEL-28: 4.10E−07 Molar
  CC50: 2100 nM
HeLa-APL
  GI50: 556 nM
  TGI HELA-APL: 1.52E−06 Molar
  CC50: 3810 nM

## C/C=C1\NC(=O)[C@H](Cc2ccccc2)NC(=O)[C@@H](C(C)C)NC(=O)[C@@H]([C@@H](C)CC)NC(=O)[C@H](NC(=O)[C@H](NC(=O)[C@H](CCCN)NC(=O)[C@H]2CCCN2C(=O)[C@H](NC(=O)[C@@H](NC(=O)[C@@H](NC(=O)[C@H](NC(=O)CCCC(C)C)C(C)C)[C@@H](C)O)C(C)C)C(C)C)[C@@H](C)CC)[C@H](C)OC(=O)[C@H](C(C)C)NC1=O [Compound 2, [D-Thr^6]-KF]
LNCaP
  TGI LN-caP: 6.77E−06 Molar
  GI50: 2130 nM
  CC50: ≥ 6770 nM
SK-BR-3
  GI50: 4470 nM
  LC50: ≥ 6770 nM
  TGI SK-BR-3: 6.77E−06 Molar
LoVo-Dox
  GI50: 3060 nM
  TGI LOVO-DOX: 6.77E−06 Molar
  CC50: ≥ 6770 nM
IGROV-ET
  GI50: 1600 nM
  TGI IGROV-ET: 3.80E−06 Molar
  CC50: ≥ 6770 nM
LoVo
  GI50: ≥ 6770 nM
  TGI LOVO: 6.77E−06 Molar
  CC50: ≥ 6770 nM
PANC-1
  GI50: ≥ 6770 nM
  TGI PANC-1: 6.77E−06 Molar
  CC50: ≥ 6770 nM
A-549
  TGI A-549: 6.77E−06 Molar
  GI50: ≥ 6770 nM
  CC50: ≥ 6770 nM
HeLa
  GI50: ≥ 6770 nM
  TGI HELA: 6.77E−06 Molar
  CC50: ≥ 6770 nM
IGROV-1
  GI50: 1990 nM
  LC50 (concentration causing 50% net cell killing): ≥ 6770 nM
  TGI IGROV: 5.33E−06 Molar
HT-29
  TGI HT-29: 6.77E−06 Molar
  GI50: ≥ 6770 nM
  CC50: ≥ 6770 nM
K-562
  GI50: ≥ 6770 nM
  TGI K-562: 6.77E−06 Molar
  CC50: ≥ 6770 nM
DU-145
  GI50: 5290 nM
  LC50 (concentration causing 50% net cell kill): ≥ 6770 nM
  TGI DU-145: 6.77E−06 Molar
SK-MEL-28
  GI50: ≥ 6770 nM
  TGI MEL-28: 6.77E−06 Molar
  CC50: ≥ 6770 nM
HeLa-APL
  GI50: ≥ 6770 nM
  TGI HELA-APL: 6.77E−06 Molar
  CC50: ≥ 6770 nM

## C/C=C1\NC(=O)[C@H](Cc2ccccc2)NC(=O)[C@@H](C(C)C)NC(=O)[C@@H]([C@@H](C)CC)NC(=O)[C@H](NC(=O)[C@H](NC(=O)[C@H](CCCN)NC(=O)[C@H]2CCCN2C(=O)[C@H](NC(=O)[C@@H](NC(=O)[C@@H](NC(=O)[C@H](NC(=O)CCCC(C)C)C(C)C)[C@@H](C)O)C(C)C)C(C)C)[C@@H](C)CC)COC(=O)[C@H](C(C)C)NC1=O [Compound 3, [D-Ser^6]-KF] ({Hexanoyl(5-Me)}-[dV]TV[dV][dP][Orn][d(aIle)][dS][d(aIle)][dV]F[Dhb]V; ester 8-C)
LNCaP
  TGI LN-caP: 1.12E−06 Molar
  GI50: 372 nM
  CC50: 2940 nM
SK-BR-3
  GI50: 406 nM
  LC50: 2450 nM
  TGI SK-BR-3: 6.23E−07 Molar
LoVo-Dox
  GI50: 179 nM
  TGI LOVO-DOX: 3.37E−07 Molar
  CC50: 637 nM
IGROV-ET
  GI50: 264 nM
  TGI IGROV-ET: 6.38E−07 Molar
  CC50: 2110 nM
LoVo
  GI50: 189 nM
  TGI LOVO: 3.64E−07 Molar
  CC50: 758 nM
PANC-1
  GI50: 3080 nM
  TGI PANC-1: 6.83E−06 Molar
  CC50: ≥ 6830 nM
A-549
  TGI A-549: 2.46E−06 Molar
  GI50: 1360 nM
  CC50: 4470 nM
HeLa
  GI50: 1350 nM
  TGI HELA: 2.64E−06 Molar
  CC50: 5210 nM
IGROV-1
  GI50: 455 nM
  LC50 (concentration causing 50% net cell killing): 3160 nM
  TGI IGROV: 1.27E−06 Molar
HT-29
  TGI HT-29: 1.22E−06 Molar
  GI50: 378 nM
  CC50: 3520 nM
K-562
  GI50: 5080 nM
  TGI K-562: 6.83E−06 Molar
  CC50: ≥ 6830 nM
DU-145
  GI50: 833 nM
  LC50 (concentration causing 50% net cell kill): 3440 nM
  TGI DU-145: 1.69E−06 Molar
SK-MEL-28
  GI50: 1570 nM
  TGI MEL-28: 2.66E−06 Molar
  CC50: 4530 nM
HeLa-APL
  GI50: 1370 nM
  TGI HELA-APL: 2.28E−06 Molar
  CC50: 3780 nM

## C/C=C1\NC(=O)[C@H](Cc2ccccc2)NC(=O)[C@@H](C(C)C)NC(=O)[C@@H]([C@@H](C)CC)NC(=O)[C@H](NC(=O)[C@H](NC(=O)[C@H](CCCN)NC(=O)[C@H]2CCCN2C(=O)[C@H](NC(=O)[C@H](CCC2CCCCC2)NC(=O)[C@@H](NC(=O)[C@@H](CC2CCCCC2)NC(=O)CCCC(C)C)[C@@H](C)O)C(C)C)[C@@H](C)CC)[C@@H](C)OC(=O)[C@H](C(C)C)NC1=O [Compound 10, [hCh^11, D-Cha^13]-KF] ({Hexanoyl(5-Me)}-[dCha]T[hCha][dV][dP][Orn][d(aIle)][d(aThr)][d(aIle)][dV]F[Dhb]V; ester 8-C)
LNCaP
  TGI LN-caP: 6.25E−06 Molar
  GI50: 4890 nM
  CC50: 6250 nM
SK-BR-3
  GI50: 1310 nM
  LC50: 4160 nM
  TGI SK-BR-3: 2.32E−06 Molar
LoVo-Dox
  GI50: 537 nM
  TGI LOVO-DOX: 1.30E−06 Molar
  CC50: 2940 nM
IGROV-ET
  GI50: 2230 nM
  TGI IGROV-ET: 4.56E−06 Molar
  CC50: 6250 nM
LoVo
  GI50: 1120 nM
  TGI LOVO: 2.27E−06 Molar
  CC50: 4590 nM
A-549
  TGI A-549: 6.25E−06 Molar
  GI50: 3560 nM
  CC50: 6250 nM
HeLa
  GI50: 2670 nM
  TGI HELA: 6.25E−06 Molar
  CC50: 6250 nM
IGROV-1
  GI50: 1990 nM
  LC50 (concentration causing 50% net cell killing): 6250 nM
  TGI IGROV: 3.84E−06 Molar
HT-29
  TGI HT-29: 1.96E−06 Molar
  GI50: 1060 nM
  CC50: 3580 nM
K-562
  GI50: 6250 nM
  TGI K-562: 6.25E−06 Molar
  CC50: 6250 nM
DU-145
  GI50: 4290 nM
  LC50 (concentration causing 50% net cell kill): 6250 nM
  TGI DU-145: 6.25E−06 Molar
SK-MEL-28
  GI50: 3100 nM
  TGI MEL-28: 6.25E−06 Molar
  CC50: 6250 nM
HeLa-APL
  GI50: 3670 nM
  TGI HELA-APL: 6.25E−06 Molar
  CC50: 6250 nM
